Laboratory results taken from US20230398130A1, “METHODS AND COMPOSITIONS FOR DIFFERENTIATING STEM CELLS” (Massachusetts Institute of Technology, priority 2020, published 2023).
Structures can show the parent of a compound that is named as a salt.

Tested on: ISC-enriched organoids
Assay: Primary screen, 384-well 2.5-D organoid differentiation (ENR+CD, 6 days, Target Selective Inhibitor Library, vs whole-plate median): ATP (CellTiter-Glo 3D, CTG)

Row | SMILES | Z.CTG (standard z score) (Dose 0.08 uM, primary screen) | Z.CTG (standard z score) (Dose 0.40 uM, primary screen) | Z.CTG (standard z score) (Dose 2.00 uM, primary screen) | Z.CTG (standard z score) (Dose 10.00 uM, primary screen) | Z.CTG (standard z score) (dose 0.08 uM) | Z.CTG (standard z score) (dose 0.40 uM) | Z.CTG (standard z score) (dose 2.00 uM) | Z.CTG (standard z score) (dose 10.00 uM)
1 | Oc1c2ccccc2c2c3c(cccc13)N=N2 [SP600125] | 0.471 | 0.347 | 0.246 | −0.047 |  |  |  | 
2 | Cc1[nH]c(/C=C2\C(=O)Nc3ccc(S(=O)(=O)N(C)c4cccc(Cl)c4)cc32)c(C)c1C(=O)N1CCN(C)CC1 [SU11274] | 0.852 | 0.645 | 0.139 | −1.954 |  |  |  | 
3 | CN[C@H]1CC[C@@H](c2ccc(Cl)c(Cl)c2)c2ccccc21 [Sertraline HCl] | −0.189 | 0.208 | 0.157 | 0.104 |  |  |  | 
4 | CC(NC(=O)c1ccccc1/N=C/c1c(O)ccc2ccccc12)c1ccccc1 (centres unmarked) [Sirtinol] | −0.520 | 0.022 | −0.287 | −0.186 |  |  |  | 
5 | Cc1cc2c(cc1CC(=O)c1sccc1S(=O)(=O)Nc1onc(C)c1Cl)OCO2 [Sitaxentan sodium] | 0.226 | −0.478 | −0.230 | −0.240 |  |  |  | 
6 | CN1CCN(c2nc(C3=C(c4c[nH]c5ccccc45)C(=O)NC3=O)c3ccccc3n2)CC1 [Sotrastaurin] | 0.024 | −0.286 | −0.650 | −0.578 |  |  |  | 
7 | O=S(=O)(c1ccccc1)N(CC(F)(F)F)c1ccc(C(O)(C(F)(F)F)C(F)(F)F)cc1 [T0901317] | 0.112 | 0.426 | 0.228 | 0.272 |  |  |  | 
8 | Cc1cc(OCCCS(C)(=O)=O)cc(C)c1-c1cccc(COc2ccc3c(c2)OC[C@H]3CC(=O)O)c1 [TAK-875] | 0.572 | −0.392 | −0.376 | −0.694 |  |  |  | 
9 | CN1CC(=O)N2[C@H](c3ccc4c(c3)OCO4)c3[nH]c4ccccc4c3C[C@@H]2C1=O [Tadalafil] | −0.046 | 0.863 | 1.042 | 0.644 |  |  |  | 
10 | COc1cc2c(cc1OC)CN(CCc1ccc(NC(=O)c3cc(OC)c(OC)cc3NC(=O)c3cnc4ccccc4c3)cc1)CC2 [Tariquidar] | −0.280 | 0.128 | 0.899 | 0.543 |  |  |  | 
11 | CCCc1nc2c(C)cc(-c3nc4ccccc4n3C)cc2n1Cc1ccc(-c2ccccc2C(=O)O)cc1 [Telmisartan] | 0.320 | 0.584 | 0.153 | 0.549 |  |  |  | 
12 | CC(C)OC(=O)OCOP(=O)(CO[C@H](C)Cn1cnc2c(N)ncnc21)OCOC(=O)OC(C)C [Tenofovir Disoproxil Fumarate] |  |  |  |  | 0.172 | −0.004 | −0.378 | −1.034
13 | CCCSc1nc(N[C@@H]2C[C@H]2c2ccc(F)c(F)c2)c2nnn([C@@H]3C[C@H](OCCO)[C@@H](O)[C@H]3O)c2n1 [Ticagrelor] |  |  |  |  | −0.190 | −0.069 | −0.645 | −0.576
14 | Clc1ccccc1CN1CCc2sccc2C1 [Ticlopidine HCl] |  |  |  |  | −0.281 | −0.097 | −0.559 | −0.013
15 | O=c1oc2cc(O)ccc2s1 [Tioxolone] |  |  |  |  | 0.586 | 0.212 | 0.105 | 0.783
16 | c1ccc(CC2=NCCN2)cc1 [Tolazoline HCl] |  |  |  |  | 0.585 | 0.530 | −0.122 | −0.496
17 | Cc1c(Cl)cccc1Nc1ccccc1C(=O)O [Tolfenamic Acid] |  |  |  |  | 0.467 | −0.007 | −0.379 | −0.276
18 | Cc1ccccc1C(=O)Nc1ccc(C(=O)N2CCCC(O)c3cc(Cl)ccc32)c(C)c1 (centres unmarked) [Tolvaptan] |  |  |  |  | 0.227 | −0.019 | −0.225 | −0.249
19 | CCOC(=O)N1c2ccc(C(F)(F)F)cc2[C@@H](N(Cc2cc(C(F)(F)F)cc(C(F)(F)F)c2)C(=O)OC)C[C@H]1CC [Torcetrapib] |  |  |  |  | 0.677 | 0.147 | −0.289 | −0.360
20 | CN(C)CCOc1ccc(/C(=C(/CCCl)c2ccccc2)c2ccccc2)cc1 [Toremifene Citrate] |  |  |  |  | 0.822 | 0.285 | −2.417 | −3.335
21 | Cn1c(=O)cc(N2CCC[C@@H](N)C2)n(Cc2cc(F)ccc2C#N)c1=O [Trelagliptin] |  |  |  |  | 0.482 | −0.181 | 0.120 | 0.322
22 | Nc1nc(N)c2nc(-c3ccccc3)c(N)nc2n1 [Triamterene] |  |  |  |  | −0.070 | −0.394 | −0.241 | −1.103
23 | CCC(COC(=O)c1cc(OC)c(OC)c(OC)c1)(c1ccccc1)N(C)C (centres unmarked) [Trimebutine] |  |  |  |  | 0.017 | −0.483 | −2.409 | −2.545
24 | CNCc1ccc(-c2cc(-c3nc(-c4ccc(S(=O)(=O)C(C)C)cc4)cnc3N)on2)cc1 [VE-822] |  |  |  |  | −0.351 | −0.685 | −1.713 | −4.212
25 | O=c1ncn2nc(Sc3ccc(F)cc3F)ccc2c1-c1c(Cl)cccc1Cl [VX-745] |  |  |  |  | 0.445 | 0.349 | 0.044 | 0.053
26 | CCO[C@@H]1OC(=O)C[C@@H]1NC(=O)[C@@H]1CCCN1C(=O)[C@@H](NC(=O)c1ccc(N)c(Cl)c1)C(C)(C)C [VX-765] |  |  |  |  | 0.368 | 0.555 | 0.393 | 0.608
27 | C[C@@H](c1ncncc1F)[C@](O)(Cn1cncn1)c1ccc(F)cc1F [Voriconazole] |  |  |  |  | 0.617 | 0.730 | 0.680 | 0.783
28 | C=CC(=O)Nc1cccc(Oc2nc(Nc3ccc(N4CCN(C)CC4)cc3OC)ncc2Cl)c1 [WZ4002] |  |  |  |  | 0.748 | 0.196 | 0.360 | −2.248
29 | Oc1nc(-c2ccc(C(F)(F)F)cc2)nc2c1CSCC2 [XAV-939] |  |  |  |  | −0.792 | −0.065 | −0.847 | −2.147
